# Results published in PubChem BioAssay AID2060502 (Molecular Pharmacology Branch, DTP, NCI, 2025).
# System: 885724-159-R-J1-PDC complex spheroid viability
# Assay: Anticancer human tumor 885724-159-R-J1-PDC patient-derived pancreatic adenocarcinoma cell line growth inhibition [GQUAD]
# Conditions: for IC50: curve of first compound; for viability, T/C: stronger effect = lower value
# Outline: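 Multi-cell-type spheroids of tumor cells with HUVEC and mesenchymal stem cells, treated with drug combinations. Concentrations descend in half-log steps from near clinical Cmax, or from 10 microM where Cmax is unknown; viability read-out.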
# [1] = second compound 0.0316 µM, first compound 0.0316 µM
# [2] = second compound 0.0316 µM, first compound 0.316 µM
# [3] = second compound 0.1 µM, first compound 0.0316 µM
# [4] = second compound 0.1 µM, first compound 0.316 µM
# [5] = second compound 0.316 µM, first compound 0.0316 µM
# [6] = second compound 0.316 µM, first compound 0.316 µM
# [7] = second compound 1 µM, first compound 0.0316 µM
# [8] = second compound 1 µM, first compound 0.316 µM
# [9] = second compound 3.16 µM, first compound 0.0316 µM
# [10] = second compound 3.16 µM, first compound 0.316 µM
# [11] = second compound 10 µM, first compound 0.0316 µM
# [12] = second compound 10 µM, first compound 0.316 µM
# [13] = second compound 0.0316 µM, first compound 0.1 µM
# [14] = second compound 0.0316 µM, first compound 1 µM
# [15] = second compound 0.0316 µM, first compound 3.16 µM
# [16] = second compound 0.0316 µM, first compound 10 µM
# [17] = second compound 0.1 µM, first compound 0.1 µM
# [18] = second compound 0.1 µM, first compound 1 µM
# [19] = second compound 0.1 µM, first compound 3.16 µM
# [20] = second compound 0.1 µM, first compound 10 µM
# [21] = second compound 0.316 µM, first compound 0.1 µM
# [22] = second compound 0.316 µM, first compound 1 µM
# [23] = second compound 0.316 µM, first compound 3.16 µM
# [24] = second compound 0.316 µM, first compound 10 µM
# [25] = second compound 1 µM, first compound 0.1 µM
# [26] = second compound 1 µM, first compound 1 µM
# [27] = second compound 1 µM, first compound 3.16 µM
# [28] = second compound 1 µM, first compound 10 µM
# [29] = second compound 3.16 µM, first compound 0.1 µM
# [30] = second compound 3.16 µM, first compound 1 µM
# [31] = second compound 3.16 µM, first compound 3.16 µM
# [32] = second compound 3.16 µM, first compound 10 µM
# [33] = second compound 10 µM, first compound 0.1 µM
# [34] = second compound 10 µM, first compound 1 µM
# [35] = second compound 10 µM, first compound 3.16 µM
# [36] = second compound 10 µM, first compound 10 µM
# 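Also: spheroids exposed to agents for seven days before readout.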
# 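For viability, T/C in this document: percent of vehicle control viability where 100% = DMSO wells.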
compound,measurement,setting,value
CCc1c2c(nc3ccc(O)cc13)-c1cc3c(c(=O)n1C2)COC(=O)[C@]3(O)CC + CN(C)c1ccc(Nc2c3ccc(NC(=O)CCN4CCCC4)cc3nc3cc(NC(=O)CCN4CCCC4)ccc23)cc1,IC50,second compound 0.0316 µM,56.8 nM
same,IC50,second compound 0.1 µM,59.5 nM
same,IC50,second compound 0.316 µM,48.8 nM
same,IC50,second compound 1 µM,23.8 nM
same,IC50,second compound 3.16 µM,21.7 nM
same,IC50,second compound 10 µM,20 nM
same,"viability, T/C","second compound 0.0316 µM, first compound 0.000999 µM",93.4%
same,"viability, T/C","second compound 0.0316 µM, first compound 0.00316 µM",78.9%
same,"viability, T/C","second compound 0.0316 µM, first compound 0.00999 µM",66.8%
same,"viability, T/C",[1],56.9%
same,"viability, T/C","second compound 0.0316 µM, first compound 0.0999 µM",50.8%
same,"viability, T/C",[2],9.22%
same,"viability, T/C","second compound 0.1 µM, first compound 0.000999 µM",93.7%
same,"viability, T/C","second compound 0.1 µM, first compound 0.00316 µM",72.2%
same,"viability, T/C","second compound 0.1 µM, first compound 0.00999 µM",63.6%
same,"viability, T/C",[3],59.7%
same,"viability, T/C","second compound 0.1 µM, first compound 0.0999 µM",51.1%
same,"viability, T/C",[4],7.61%
same,"viability, T/C","second compound 0.316 µM, first compound 0.000999 µM",83.1%
same,"viability, T/C","second compound 0.316 µM, first compound 0.00316 µM",73.1%
same,"viability, T/C","second compound 0.316 µM, first compound 0.00999 µM",63.9%
same,"viability, T/C",[5],48.1%
same,"viability, T/C","second compound 0.316 µM, first compound 0.0999 µM",51.6%
same,"viability, T/C",[6],9.1%
same,"viability, T/C","second compound 1 µM, first compound 0.000999 µM",83.3%
same,"viability, T/C","second compound 1 µM, first compound 0.00316 µM",65%
same,"viability, T/C","second compound 1 µM, first compound 0.00999 µM",56.6%
same,"viability, T/C",[7],47.4%
same,"viability, T/C","second compound 1 µM, first compound 0.0999 µM",41.8%
same,"viability, T/C",[8],9.11%
same,"viability, T/C","second compound 3.16 µM, first compound 0.000999 µM",67.1%
same,"viability, T/C","second compound 3.16 µM, first compound 0.00316 µM",60.4%
same,"viability, T/C","second compound 3.16 µM, first compound 0.00999 µM",53.7%
same,"viability, T/C",[9],42.7%
same,"viability, T/C","second compound 3.16 µM, first compound 0.0999 µM",40.1%
same,"viability, T/C",[10],8.41%
same,"viability, T/C","second compound 10 µM, first compound 0.000999 µM",71%
same,"viability, T/C","second compound 10 µM, first compound 0.00316 µM",70.1%
same,"viability, T/C","second compound 10 µM, first compound 0.00999 µM",50.2%
same,"viability, T/C",[11],42.9%
same,"viability, T/C","second compound 10 µM, first compound 0.0999 µM",39.2%
same,"viability, T/C",[12],9.18%
O=C(c1cc(Cc2n[nH]c(=O)c3ccccc23)ccc1F)N1CCN(C(=O)C2CC2)CC1 + Cc1cnc(CNC(=O)c2c(=O)c3ccc(N4CCCN(C)CC4)nc3n3c2sc2ccccc23)cn1,IC50,second compound 0.0316 µM,> 10000 nM
same,IC50,second compound 0.1 µM,> 10000 nM
same,IC50,second compound 0.316 µM,> 10000 nM
same,IC50,second compound 1 µM,> 10000 nM
same,IC50,second compound 3.16 µM,> 10000 nM
same,IC50,second compound 10 µM,> 10000 nM
same,"viability, T/C",[1],97.6%
same,"viability, T/C",[13],96.7%
same,"viability, T/C",[2],98.6%
same,"viability, T/C",[14],99.2%
same,"viability, T/C",[15],87.3%
same,"viability, T/C",[16],90.8%
same,"viability, T/C",[3],115%
same,"viability, T/C",[17],109%
same,"viability, T/C",[4],105%
same,"viability, T/C",[18],90.6%
same,"viability, T/C",[19],84.6%
same,"viability, T/C",[20],83.5%
same,"viability, T/C",[5],88%
same,"viability, T/C",[21],93.7%
same,"viability, T/C",[6],88.9%
same,"viability, T/C",[22],85.5%
same,"viability, T/C",[23],85.5%
same,"viability, T/C",[24],77%
same,"viability, T/C",[7],87.8%
same,"viability, T/C",[25],83.2%
same,"viability, T/C",[8],78.8%
same,"viability, T/C",[26],77.7%
same,"viability, T/C",[27],87%
same,"viability, T/C",[28],65.3%
same,"viability, T/C",[9],78.2%
same,"viability, T/C",[29],80.3%
same,"viability, T/C",[10],78.2%
same,"viability, T/C",[30],74%
same,"viability, T/C",[31],76.2%
same,"viability, T/C",[32],57.4%
same,"viability, T/C",[11],71.7%
same,"viability, T/C",[33],70.7%
same,"viability, T/C",[12],70.9%
same,"viability, T/C",[34],73.1%
same,"viability, T/C",[35],64.8%
same,"viability, T/C",[36],66.2%
CC1COCCN1c1cc(C2(O)CC3CCC(C2)O3)c2cnn(-c3ccn[nH]3)c2n1 (stereo unspecified) + Cc1cnc(CNC(=O)c2c(=O)c3ccc(N4CCCN(C)CC4)nc3n3c2sc2ccccc23)cn1,IC50,second compound 0.0316 µM,1120 nM
same,IC50,second compound 0.1 µM,1140 nM
same,IC50,second compound 0.316 µM,986 nM
same,IC50,second compound 1 µM,293 nM
same,IC50,second compound 3.16 µM,184 nM
same,IC50,second compound 10 µM,196 nM
same,"viability, T/C",[1],96.9%
same,"viability, T/C",[13],71%
same,"viability, T/C",[2],63.3%
same,"viability, T/C",[14],52.9%
same,"viability, T/C",[15],42.7%
same,"viability, T/C",[16],30.8%
same,"viability, T/C",[3],91.1%
same,"viability, T/C",[17],83.7%
same,"viability, T/C",[4],68.3%
same,"viability, T/C",[18],51.4%
same,"viability, T/C",[19],37.8%
same,"viability, T/C",[20],27.9%
same,"viability, T/C",[5],83.8%
same,"viability, T/C",[21],81.5%
same,"viability, T/C",[6],68.5%
same,"viability, T/C",[22],48%
same,"viability, T/C",[23],35%
same,"viability, T/C",[24],22.4%
same,"viability, T/C",[7],79.7%
same,"viability, T/C",[25],59.3%
same,"viability, T/C",[8],48.7%
same,"viability, T/C",[26],39.1%
same,"viability, T/C",[27],27.5%
same,"viability, T/C",[28],17.9%
same,"viability, T/C",[9],72.1%
same,"viability, T/C",[29],56.5%
same,"viability, T/C",[10],43.8%
same,"viability, T/C",[30],32.4%
same,"viability, T/C",[31],19%
same,"viability, T/C",[32],13.8%
same,"viability, T/C",[11],61.5%
same,"viability, T/C",[33],59.2%
same,"viability, T/C",[12],43.4%
same,"viability, T/C",[34],30.1%
same,"viability, T/C",[35],19.1%
same,"viability, T/C",[36],12.4%
